# Data from patent US8822494B2 (Pfizer Inc., priority 2012, dated 2014).
# pEC50: −log10 of the molar value. Like-named read-outs stand apart in the source and are kept apart here.
# Experiments:
# [1] = target: T1, Human D1 (Homo sapiens (Human), UniProt P21728); test: D1 cAMP HTRF Assay; type: cell-based; settings: HEK293T/hD1#1 stable cell line, 30 min at room temperature, footnote a = geometric mean of ≧7 determinations; for EC50: read-out: Human D1 cAMP HTRF, EC50 (μM), Geometric mean of 2-6 determinations
# From the text: This assay was used to determine the ability of a test compound to agonize (including partially agonize) D1. A Mab anti-cAMP labeled Cryptate visualizes the tracer. […] The signal, therefore, is inversely proportional to the concentration of cAMP in the sample.
# The cAMP Dynamic kit was obtained from Cisbio International (Cisbio 62AM4PEJ). Multidrop Combi (Thermo Scientific) was used for assay additions. An EnVision (PerkinElmer) reader was used to read HTRF.
# A HEK293T/hD1#1 stable cell line was constructed internally (Pfizer Ann Arbor).
# Media was removed and cell pellet was re-suspended in PBS/[…] generating 2e5 cells/mL. […] Working solutions of cAMP-D2 and anti-cAMP-cryptate were prepared according to Cisbio instructions. […] The assay plate was incubated for 1 hour at room temperature. The assay plate was read on an EnVision plate reader using Cisbio recommended settings.
# Data analysis was done using computer software. Percent effects were calculated from the compound controls. Ratio EC50 was determined using the raw ratio data from the EnVision reader. The cAMP standard curve was used in an analysis program to determine cAMP concentrations from raw ratio data. cAMP EC50 was determined using the calculated cAMP data.
# [2] = target: T1, Human D1; test: Human D1 Receptor Binding Assay ([3H]-SCH23390 competition); settings: read-out: Human D1 Receptor Binding, Ki (μM); Geometric mean of 2-3 determinations; over-expressing LTK human cell lines, 0.5 nM [3H]-SCH23390, 30 min at 37° C.; footnote b = single determination, c = geometric mean of ≧4 determinations
# Experimental: D1 binding assays were performed using over-expressing LTK human cell lines. […] These ligand and tissue concentrations were used in time course studies to determine linearity and equilibrium conditions for binding. […] The pellet was resuspended in assay buffer [50 mM Tris (pH 7.4@ RT) containing 4 mM MgSO4 and 0.5 mM EDTA]. […] Non-specific binding was determined by radioligand binding in the presence of a saturating concentration of (+)-Butaclamol (10 μM), a D1 antagonist. After a 30 minute incubation period at 37° C., assay samples were rapidly filtered through Unifilter-96 GF/B PEI-coated filter plates and rinsed with 50 mM Tris buffer (pH 7.4 at 4° C.). […] Ki values were calculated according to the Cheng-Prusoff equation: […]
# T1 sequence (P21728 whole entry): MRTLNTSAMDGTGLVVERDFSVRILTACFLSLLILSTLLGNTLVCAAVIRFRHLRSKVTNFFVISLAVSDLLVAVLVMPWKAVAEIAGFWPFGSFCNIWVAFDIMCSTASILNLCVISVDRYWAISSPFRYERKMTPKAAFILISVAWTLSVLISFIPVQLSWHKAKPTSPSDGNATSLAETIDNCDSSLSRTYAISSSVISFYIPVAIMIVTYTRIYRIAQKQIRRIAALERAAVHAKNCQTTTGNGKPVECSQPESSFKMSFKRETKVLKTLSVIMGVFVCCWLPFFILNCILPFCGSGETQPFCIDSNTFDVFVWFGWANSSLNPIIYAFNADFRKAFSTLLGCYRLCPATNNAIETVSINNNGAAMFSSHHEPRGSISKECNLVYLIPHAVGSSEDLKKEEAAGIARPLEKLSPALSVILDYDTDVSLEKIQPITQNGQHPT
SMILES,pEC50 [1],Ki [2],EC50 [1]
"Cc1cc(Oc2nccc3n[nH]cc23)ccc1-c1c(C)n[nH]c(=O)c1C (single isomer, unassigned) [Example 3, (+)-4,6-dimethyl-5-[2-methyl-4-(1H-pyrazolo[4,3-c]pyridin-4-yloxy)phenyl]pyridazin-3(2H)-one]",7.82,0.00976 µM,–
"Cc1cc(Oc2nccc3n[nH]cc23)ccc1-c1c(C)n[nH]c(=O)c1C (single isomer, unassigned) [Example 4, (−)-4,6-dimethyl-5-[2-methyl-4-(1H-pyrazolo[4,3-c]pyridin-4-yloxy)phenyl]pyridazin-3(2H)-one]",7.98,0.0104 µM,–
"Cc1cc(Oc2nccc3n[nH]cc23)ccc1-c1c(C)c(=O)[nH]c(=O)n1C (single isomer, unassigned) [Example 8, (−)-1,5-dimethyl-6-[2-methyl-4-(1H-pyrazolo[4,3-c]pyridin-4-yloxy)phenyl]pyrimidine-2,4(1H,3H)-dione]",> 8.65,0.00183 µM,–
"Cc1cc(Oc2nccc3[nH]ccc23)ccc1-c1c(C)n[nH]c(=O)c1C (single isomer, unassigned; ent-1) [Example 9, 4,6-dimethyl-5-[2-methyl-4-(1H-pyrrolo[3,2-c]pyridin-4-yloxy)phenyl]pyridazin-3(2H)-one, ENT-1]",–,0.00487 µM,0.00733 µM
"Cc1cc(Oc2nccc3[nH]ccc23)ccc1-c1c(C)cnnc1C (single isomer, unassigned; ent-1) [Example 11, 4-[4-(3,5-dimethylpyridazin-4-yl)-3-methylphenoxy]-1H-pyrrolo[3,2-c]pyridine, ENT-1]",–,0.0141 µM,0.117 µM
"Cc1cc(Oc2nccc3[nH]ccc23)ccc1-c1c(C)n[nH]c(=O)c1C (single isomer, unassigned; ent-2) [Example 10, 4,6-dimethyl-5-[2-methyl-4-(1H-pyrrolo[3,2-c]pyridin-4-yloxy)phenyl]pyridazin-3(2H)-one, ENT-2]",–,0.00504 µM,0.00431 µM
"Cc1cc(Oc2nccc3[nH]ccc23)ccc1-c1c(C)cnnc1C (single isomer, unassigned; ent-2) [Example 12, 4-[4-(3,5-dimethylpyridazin-4-yl)-3-methylphenoxy]-1H-pyrrolo[3,2-c]pyridine, ENT-2]",–,0.0883 µM,0.52 µM
"Cc1ncnc(C)c1-c1ccc(Oc2nccc3[nH]ccc23)cc1F [Example 1, 4-[4-(4,6-dimethylpyrimidin-5-yl)-3-fluorophenoxy]-1H-pyrrolo[3,2-c]pyridine]",6.75,0.0303 µM,–
"Cc1cc(Oc2nccc3[nH]ccc23)ccc1-c1c(C)cnn1C [Example 2, 4-[4-(1,4-dimethyl-1H-pyrazol-5-yl)-3-methylphenoxy]-1H-pyrrolo[3,2-c]pyridine]",6.45,0.0348 µM,–
"Cc1cc(Oc2nccc3[nH]ccc23)ccc1-c1c(C)ncnc1C [Example 5, 4-[4-(4,6-dimethylpyrimidin-5-yl)-3-methylphenoxy]-1H-pyrrolo[3,2-c]pyridine]",6.84,0.013 µM,–
"Cc1cc(Oc2nccc3[nH]ncc23)ccc1-c1c(C)ncnc1C [Example 6, 4-[4-(4,6-dimethylpyrimidin-5-yl)-3-methylphenoxy]-1H-pyrazolo[4,3-c]pyridine]",6.25,0.113 µM,–
"Cc1n[nH]c(=O)c(C)c1-c1ccc(Oc2nccc3[nH]ccc23)cc1 [Example 7, 4,6-dimethyl-5-[4-(1H-pyrrolo[3,2-c]pyridin-4-yloxy)phenyl]pyridazin-3(2H)-one]",7.72,0.00412 µM,–

# Continued, in another order:
pEC50 [1],Ki [2],SMILES,EC50 [1]
7.14,0.00456 µM,"Cc1cc(Oc2nccc3[nH]ccc23)ccc1-c1c(C)ncc(=O)n1C (single isomer, unassigned) [Example 26, (−)-1,5-dimethyl-6-[2-methyl-4-(1H-pyrrolo[3,2-c]pyridin-4-yloxy)phenyl]pyrazin-2(1H)-one]",–
7.19,0.0106 µM,"Cc1cc(Oc2nccc3[nH]ccc23)ccc1-c1c(C)ncc(=O)n1C (single isomer, unassigned) [Example 27, (+)-1,5-dimethyl-6-[2-methyl-4-(1H-pyrrolo[3,2-c]pyridin-4-yloxy)phenyl]pyrazin-2(1H)-one]",–
6.77,0.0418 µM,"Cc1cc(Oc2nccc3n[nH]cc23)ccc1-c1c(C)ncc(=O)n1C (single isomer, unassigned) [Example 39, (−)-1,5-dimethyl-6-[2-methyl-4-(1H-pyrazolo[4,3-c]pyridin-4-yloxy)phenyl]pyrazin-2(1H)-one]",–
6.17,0.0281 µM,"Cc1cc(Oc2nccc3n[nH]cc23)ccc1-c1c(C)ncc(=O)n1C (single isomer, unassigned) [Example 40, (+)-1,5-dimethyl-6-[2-methyl-4-(1H-pyrazolo[4,3-c]pyridin-4-yloxy)phenyl]pyrazin-2(1H)-one]",–
6.86,0.00798 µM,"Cc1cc(Oc2nccc3[nH]ccc23)ccc1-c1c(C)ncc2nccn12 [Example 14, 6-methyl-5-[2-methyl-4-(1H-pyrrolo[3,2-c]pyridin-4-yloxy)phenyl]imidazo[1,2-a]pyrazine]",–
6.38,0.0975 µM,"Cc1cc(Oc2nccc3[nH]ccc23)ccc1-c1cncc2nccn12 [Example 15, 5-[2-methyl-4-(1H-pyrrolo[3,2-c]pyridin-4-yloxy)phenyl]imidazo[1,2-a]pyrazine]",–
6.40,0.0283 µM,"Cc1ncnc(C#N)c1-c1ccc(Oc2nccc3[nH]ccc23)cc1F [Example 16, 5-[2-fluoro-4-(1H-pyrrolo[3,2-c]pyridin-4-yloxy)phenyl]-6-methylpyrimidine-4-carbonitrile]",–
6.43,0.0392 µM,"Cc1cc(Oc2nccc3[nH]ccc23)ccc1-c1c(C)ncnc1C#N [Example 17, 6-methyl-5-[2-methyl-4-(1H-pyrrolo[3,2-c]pyridin-4-yloxy)phenyl]pyrimidine-4-carbonitrile]",–
6.85,0.0294 µM,"Cc1ncc2nccn2c1-c1ccc(Oc2nccc3[nH]ccc23)cc1F [Example 18, 5-[2-fluoro-4-(1H-pyrrolo[3,2-c]pyridin-4-yloxy)phenyl]-6-methylimidazo[1,2-a]pyrazine]",–
6.33,0.0159 µM,"Cc1ncc2nccn2c1-c1ccc(Oc2nccc3[nH]ccc23)cc1 [Example 19, 6-methyl-5-[4-(1H-pyrrolo[3,2-c]pyridin-4-yloxy)phenyl]imidazo[1,2-a]pyrazine]",–
6.62,0.0443 µM,"Cc1ncnc(C)c1-c1ccc(Oc2nccc3[nH]ccc23)cc1 [Example 20, 4-[4-(4,6-dimethylpyrimidin-5-yl)phenoxy]-1H-pyrrolo[3,2-c]pyridine]",–
6.61,0.102 µM,"Cc1ncnc(C)c1-c1ccc(Oc2nccc3[nH]ccc23)cc1C#N [Example 21, 2-(4,6-dimethylpyrimidin-5-yl)-5-(1H-pyrrolo[3,2-c]pyridin-4-yloxy)benzonitrile]",–
6.27,0.0548 µM,"Cc1ncnc(C)c1-c1cc(F)c(Oc2nccc3[nH]ccc23)cc1F [Example 22, 4-[4-(4,6-dimethylpyrimidin-5-yl)-2,5-difluorophenoxy]-1H-pyrrolo[3,2-c]pyridine]",–
6.23,0.0538 µM,"Cc1ncnc(C)c1-c1ccc(Oc2nccc3[nH]ccc23)c(F)c1F [Example 23, 4-[4-(4,6-dimethylpyrimidin-5-yl)-2,3-difluorophenoxy]-1H-pyrrolo[3,2-c]pyridine]",–
6.99,0.00984 µM,"Cc1ncnc(C)c1-c1ccc(Oc2nccc3[nH]ccc23)cc1Cl [Example 24, 4-[3-chloro-4-(4,6-dimethylpyrimidin-5-yl)phenoxy]-1H-pyrrolo[3,2-c]pyridine]",–
6.81,0.00509 µM,"Cc1ncnc(N2CC(F)C2)c1-c1ccc(Oc2nccc3[nH]ccc23)cc1F [Example 25, 4-{3-fluoro-4-[4-(3-fluoroazetidin-1-yl)-6-methylpyrimidin-5-yl]phenoxy}-1H-pyrrolo[3,2-c]pyridine]",–
7.26,0.0357 µM,"Cc1cc(Oc2nccc3[nH]ccc23)ccc1-c1cn[nH]c(=O)c1C [Example 28, 4-methyl-5-[2-methyl-4-(1H-pyrrolo[3,2-c]pyridin-4-yloxy)phenyl]pyridazin-3(2H)-one]",–
6.92,0.0679 µM,"Cc1cc(Oc2nccc3[nH]ccc23)ccc1-c1cc(=O)[nH]nc1C [Example 29, 6-methyl-5-[2-methyl-4-(1H-pyrrolo[3,2-c]pyridin-4-yloxy)phenyl]pyridazin-3(2H)-one]",–
